Measurements reported in article PMC3750009, “Non-peptidic Cruzain Inhibitors with Trypanocidal Activity Discovered by Virtual Screening and In Vitro Assay” (PLoS Neglected Tropical Diseases, 2013).
Like-named read-outs stand apart in the source and are kept apart here.

What was measured:
[1] = mammalian cell cytotoxicity, propidium iodide flow cytometry; format: cell-based, mice; conditions: C57BL/6, mouse, primary spleen cells, mouse spleen cells, 24 h; read-out: Cytotoxic IC50
Procedure: (§1) Mammalian cell cytotoxicity was evaluated using the protocol previously reported. Spleen cells from C57BL/6 mice were isolated by mechanical dissociation, followed by incubation for 5 min with red blood cell lysis buffer (one part of 0.17 M Tris–HCl [pH 7.5] and nine parts of 0.16 M ammonium chloride). The cells were washed and suspended in RPMI 1640 medium (Gibco-BRL Life Technologies, Grand Island, NY) supplemented with 10% fetal bovine serum (Life Technologies Inc., Bethesda, MD) and antibiotics (Sigma). The cell suspension was cultured in flat-bottom 96-well plates at 5×10^5 cells per well with different concentrations of the tested compounds and incubated at 37°C in a humidified atmosphere of 5% CO2 for 24 h. Tween 20 at 0.5% was used as cell death positive control. To analyze cytotoxicity, cells were harvested, incubated with 10 µg mL^−1 propidium iodide (Sigma) and after 15 min data were acquired using a FACSCantoII (Becton-Dickinson Immunocytometry System Inc., San Jose, CA, USA). Data analysis was performed using FlowJo software (Ashland, OR, USA). The range of concentrations used for assaying cytotoxicity was 250, 125, 62.5, 31.25, 15.6, 7.8, 3.9, and 1.95 (µM).

[2] = test system: T. cruzi Tulahuen lacZ strain; assay: in vitro trypanocidal activity, infected LLC-MK2 cells, CPRG readout; format: cell-based, Trypanosoma cruzi; conditions: for IC50: Trypanosoma cruzi
Procedure: In vitro trypanocidal activity of the compounds was evaluated against amastigote forms of Tulahuen strain that was genetically modified to express β-galactosidase gene from E. coli (lacZ). A monkey kidney cell strain (LLC-MK2 - ATCC) was resuspended in RPMI medium without phenol red (Gibco-BRL Life Technologies, Grand Island, NY) containing 10% fetal bovine serum (Life Technologies Inc., Bethesda, MD) and antibiotics (Sigma Chemical Co., St. Louis) at 2×10^3 cells/well and were cultured in 96-well plates for 24 h. The cells were infected with 1×10^4 trypomastigote forms of T. cruzi Tulahuen strain, and after 24 h compounds were added with different concentrations (250, 125, 62.5, 31.25, 15.6, 7.8, 3.9 and 1.95 µM). After 4 days of culture, 50 µL of PBS containing 0.5% of Triton X-100 and 100 µM Chlorophenol Red-β-D-galactoside (CPRG - Sigma) were added. Plates were incubated at 37°C for 4 h and absorbance was read at 570 nm. Benznidazole (N-benzyl-2-nitro-1-imidazolacetamide), in the same concentrations as above was used as a reference trypanocidal drug (positive control), [41].

cruzain [3] = target: T1, cruzain (Trypanosoma cruzi, UniProt P25779); assay: cruzain enzyme assay, IC50 determination (Z-FR-MCA fluorescence); format: biochemical; conditions: for IC50: Neq42 analogs, SAR, unit inferred, read-out: IC50, cruzain inhibition (Figure 6)
T1 construct: Recombinant cruzain enzyme was expressed and purified as previously described; made in house
T1 sequence (P25779 123-337 limits assumed): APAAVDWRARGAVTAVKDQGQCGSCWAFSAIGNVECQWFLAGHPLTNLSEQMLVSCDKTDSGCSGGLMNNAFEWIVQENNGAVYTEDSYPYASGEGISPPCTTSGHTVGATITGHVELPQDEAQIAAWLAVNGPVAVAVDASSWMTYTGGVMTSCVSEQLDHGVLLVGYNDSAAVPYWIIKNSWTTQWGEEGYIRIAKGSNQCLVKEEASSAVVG
Procedure: (§2) Recombinant cruzain enzyme was expressed and purified as previously described. The activity of the cruzain enzyme was measured and quantified through active-site titration with the irreversible inhibitor E-64, as described previously. Cathepsin L enzyme and all reagents used for buffer preparation were purchased from Sigma-Aldrich (St. Louis, MO, USA). The compounds screened against the enzymes were purchased from Enamine (Kiev, Ukraine), Chemdiv (San Diego, CA, USA), Asinex (Moscow, Russia) and IBScreen (Moscow, Russia) and had more than 95%purity, according to these suppliers. All experiments were carried out with freshly made solutions.
(§3) The activity of cruzain was measured in 100 mM phosphate buffer, 100 mM NaCl, 10 mM EDTA, DMSO (5.0% v/v), Triton X-100 (0.01% v/v) and 5.0 mM DTT at pH 6.3. The activity of cathepsin L was measured in 100 mM sodium acetate buffer, 100 mM NaCl, 10 mM EDTA, DMSO (5.0% v/v), Triton X-100 (0.01% v/v) and 5.0 mM DTT at pH 5.5. Both assays were carried out with 2 nM of the respective enzymes and 2 µM of the substrate Z-FR-MCA.
The reaction started by the addition of the substrate Z-FR-MCA was monitored by recording the emission at wavelength 460 nm while exciting at 360 nm. Fluorescence was measured using a Synergy HT fluorimeter microplate reader (Biotek). The percentage of inhibition was calculated according to following equation: [drawing 1] where vi and v0 are the initial velocities determined in presence and absence of inhibitors, respectively. The activity of enzyme in the presence of inhibitors was measured in 11 different concentrations in order to obtain the dose-response curves, which were analyzed using the Origin 7.0 program to determine the IC50 values. All experiments were repeated at least in duplicate.

[4] = test system: Spleen cells from C57BL/6 mice; assay: mammalian cell cytotoxicity, propidium iodide flow cytometry; format: cell-based; conditions: for IC50: mouse spleen cells, 24 h, read-out: Cytotoxic IC50; for cytotoxicity ratio (IC50(cyto)/IC50)(T. cruzi): spleen cell IC50 over T. cruzi IC50
Procedure: as §1

[5] = parameters: method as in PMID 19620707; conditions: pre-clinical trials ref 13; cited from earlier work
Chagas disease [6] = test system: Chagas disease; parameters: method as in PMID 19620707; conditions: mice and dogs ref 13; cited from earlier work
cathepsin L [7] = target: T2, cathepsin L (Homo sapiens, UniProt P07711); assay: cathepsin L enzyme assay, IC50 determination (Z-FR-MCA fluorescence); format: biochemical; conditions: pH 5.5, 0.01% Triton X-100, 2 nM enzyme, 2 µM Z-FR-MCA
T2 construct: Cathepsin L enzyme and all reagents used for buffer preparation were purchased from Sigma-Aldrich; purchased Sigma-Aldrich (St. Louis, MO, USA)
T2 sequence (P07711 114-333): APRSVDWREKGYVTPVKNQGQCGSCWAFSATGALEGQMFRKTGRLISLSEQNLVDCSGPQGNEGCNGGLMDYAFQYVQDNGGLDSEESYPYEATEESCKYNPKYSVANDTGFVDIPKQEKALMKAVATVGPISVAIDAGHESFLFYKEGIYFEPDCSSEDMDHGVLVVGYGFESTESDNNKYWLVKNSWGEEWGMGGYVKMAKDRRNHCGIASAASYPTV
Procedure: as §2
as §3, with “Both assays were carried out with 2 nM of the respective enzymes and 2 µM of the substrate Z-FR-MCA.” left out
The reaction started by the addition of the substrate Z-FR-MCA was monitored by recording the emission at wavelength 460 nm while exciting at 360 nm. Fluorescence was measured using a Synergy HT fluorimeter microplate reader (Biotek). The percentage of inhibition was calculated according to following equation: [drawing 1] where vi and v0 are the initial velocities determined in presence and absence of inhibitors, respectively. […]

cathepsin L [8] = target: T2, cathepsin L; assay: cathepsin L affinity constant (Ki) determination, Michaelis-Menten curves; format: biochemical; conditions: pH 5.5, 0.01% Triton X-100, inhibitor 30, 50 and 70 µM
Procedure: as §2
as §3, with “Both assays were carried out with 2 nM of the respective enzymes and 2 µM of the substrate Z-FR-MCA.” left out
(§4) The Michaelis-Menten curves were determined in the absence and presence of 30, 50 and 70 µM respectively of each inhibitor. […] The reaction was started and monitored as described above. The mechanisms of inhibition and K i values were determined using the kinetic module of SigmaPlot 10.0 by adjusting the velocities into the competitive, non-competitive and uncompetitive modes. […]

cruzain [9] = target: T1, cruzain; assay: cruzain affinity constant (Ki) and mechanism determination, Michaelis-Menten curves; format: biochemical; conditions: pH 6.3, 0.01% Triton X-100, inhibitor 30, 50 and 70 µM
Procedure: as §2
as §3, with “Both assays were carried out with 2 nM of the respective enzymes and 2 µM of the substrate Z-FR-MCA.” left out
as §4

Chagas disease [10] = test system: Chagas disease; parameters: method as in PMID 19900395; conditions: acute phase ref 5; cited from earlier work
[11] = LLC-MK2, 96 h, Tulahuen lacZ strain, 4 days of culture, read-out: Trypanocidal activity IC50
[12] = TULAHUEN, LLC-MK2, average for compounds Neq165, Neq172, Neq176 and Neq177, read-out: trypanocidal pIC50 on average (converted)
[13] = LLC-MK2, Tulahuen lacZ strain, read-out: trypanocidal pIC50 (converted)

SMILES	IC50 at 24 h [1] [µM]	IC50 [2, 11] [µM]	IC50 [2, 12] [µM]	IC50 (cruzain [3]) [µM]	further results
CC(Sc1nncn1-c1ccccc1)C(=O)Nc1sccc1C(N)=O (stereo not drawn) [Neq177]	> 250	137 ± 14.4	~158	48.9 ± 10	
Cc1nnc(SCC(=O)Nc2sccc2C(N)=O)n1Cc1ccccc1 [Neq165]		153.4 ± 0.6	~158	31.3 ± 1.2	
NC(=O)c1ccsc1NC(=O)COC(=O)[C@@H](Cc1ccccc1)NC(=O)OCc1ccccc1 [Neq172]	23	166 ± 12.9	~158	73.1 ± 4.9	IC50 [4]: 23.1 ± 2.7 µM
CN1CCN(C(=O)N[C@@H](Cc2ccccc2)C(=O)N[C@H](/C=C/S(=O)(=O)c2ccccc2)CCc2ccccc2)CC1 [Compound K11777]					mutagenicity [5]: non-mutagenic; pharmacokinetic profile [5]: acceptable pharmacokinetic profile; tolerability [5]: well tolerated; efficacy in models of acute and chronic Chagas disease (Chagas disease [6]): demonstrated efficacy
NC(=O)c1ccsc1NC(=O)CSc1nnc(CN2CCCCC2)n1Cc1ccccc1 [Neq42]	50	10.6 ± 0.1		21.6 ± 5.4	IC50 (cathepsin L [7]): 35.1 ± 11 µM; Ki (cathepsin L [8]): 35.6 ± 8.2 µM; IC50 [4]: 49.9 ± 2.7 µM; cytotoxicity ratio (IC50(cyto)/IC50)(T. cruzi) [4]: 5; Ki (cruzain [9]): 18.5 ± 5.5 µM; IC50 [2, 13]: 12.6 µM; preliminary trypanocidal activity ([2]; single dose of 250 µM, Tulahuen lacZ strain): active
NC(=O)c1ccsc1NC(=O)CSc1nnc[nH]1 [Neq176]	> 250	108 ± 52.2	~158	68.5 ± 3	ligand efficiency (LE) (cruzain [3]; from cruzain potency): 0.33 kcal mol^-1 atom^-1
O=C(Cn1ccnc1[N+](=O)[O-])NCc1ccccc1 [Bz, N-benzyl-2-nitro-1-imidazolacetamide, reference compound]	> 500	64.3 ± 12.3			cytotoxicity ratio (IC50(cyto)/IC50)(T. cruzi) [4]: 8; successful cure (Chagas disease [10]): up to 80%; IC50 [2, 13]: 63.1 µM
